These results are taken from US20250333424A1, “ANTIVIRAL COMPOUNDS” (Gilead Sciences, Inc., priority 2024, published 2025).

For this assay, the system named is monocytic THP1 cells infected with HIV VSV-G pseudotyped GFP-NEF reporter virus. Description: cells. Type of assay: cell-based. The conditions noted are these: Human immunodeficiency virus 1, THP-1, 24 h.

`Cc1cc(/C=C/C#N)cc(C)c1Oc1nc(NC23CC(C#N)(C2)C3)nc2nc3n(c12)CCO3` [Compound 184, (E)-3-((4-(4-(2-cyanovinyl)-2,6-dimethylphenoxy)-6,7-dihydrooxazolo[2,3-f]purin-2-yl)amino)bicyclo[1.1.1]pentane-1-carbonitrile]: the EC50 was 36.5 nM. With `Cc1cc(/C=C/C#N)cc(C)c1Oc1nc(NC23CC(C#N)(C2)C3)nc2nc3n(c12)C[C@H](C)CO3` [Compound 185, (S,E)-3-((4-(4-(2-cyanovinyl)-2,6-dimethylphenoxy)-7-methyl-7,8-dihydro-6H-[1,3]oxazino[2,3-f]purin-2-yl)amino)bicyclo[1.1.1]pentane-1-carbonitrile] the figure was 22.3 nM; with `Cc1cc(/C=C/C#N)cc(C)c1Oc1nc(NC23CC(C#N)(C2)C3)nc2nc3n(c12)C[C@@H](C)CO3` [Compound 186, (R,E)-3-((4-(4-(2-cyanovinyl)-2,6-dimethylphenoxy)-7-methyl-7,8-dihydro-6H-[1,3]oxazino[2,3-f]purin-2-yl)amino)bicyclo[1.1.1]pentane-1-carbonitrile], 92 nM; with `Cc1cc(/C=C/C#N)cc(C)c1Oc1nc(NC23CC(C#N)(C2)C3)nc2nc3n(c12)CC1(CC1)CO3` [Compound 187, (E)-3-((4′-(4-(2-cyanovinyl)-2,6-dimethylphenoxy)-6′H,8′H-spiro[cyclopropane-1,7′-[1,3]oxazino[2,3-f]purin]-2′-yl)amino)bicyclo[1.1.1]pentane-1-carbonitrile], 36.5 nM. Compound `Cc1cc(/C=C/C#N)cc(C)c1Oc1nc(NC23CC(C#N)(C2)C3(F)F)nc2nc3n(c12)CCCO3` [Compound 188, (E)-3-((4-(4-(2-cyanovinyl)-2,6-dimethylphenoxy)-7,8-dihydro-6H-[1,3]oxazino[2,3-f]purin-2-yl)amino)-2,2-difluorobicyclo[1.1.1]pentane-1-carbonitrile] had an EC50 of 70.4 nM. With `Cc1cc(/C=C/C#N)cc(C)c1Oc1nc(NC23CC(C#N)(C2)C3)nc2nc3n(c12)CC(F)(F)CO3` [Compound 189, (E)-3-((4-(4-(2-cyanovinyl)-2,6-dimethylphenoxy)-7,7-difluoro-7,8-dihydro-6H-[1,3]oxazino[2,3-f]purin-2-yl)amino)bicyclo[1.1.1]pentane-1-carbonitrile] the figure was 109 nM; with `Cc1cc(/C=C/C#N)cc(C)c1Oc1nc(NC23CC(C#N)(C2)C3)nc2[nH]c(=O)n(C(F)F)c12` [Compound 190, (E)-3-((6-(4-(2-cyanovinyl)-2,6-dimethylphenoxy)-7-(difluoromethyl)-8-oxo-8,9-dihydro-7H-purin-2-yl)amino)bicyclo[1.1.1]pentane-1-carbonitrile], 329 nM. With `Cc1cc(/C=C/C#N)cc(C)c1Oc1nc(NC23CC(C#N)(C2)C3)nc2nc3n(c12)CCOC3` [Compound 195, (E)-3-((4-(4-(2-cyanovinyl)-2,6-dimethylphenoxy)-6,7-dihydro-9H-[1,4]oxazino[3,4-f]purin-2-yl)amino)bicyclo[1.1.1]pentane-1-carbonitrile] the figure was 37 nM; with `Cc1cc(/C=C/C#N)cc(C)c1Oc1nc(NC23CC(C#N)(C2)C3)nc2nc3n(c12)CCC3` [Compound 196, (E)-3-((4-(4-(2-cyanovinyl)-2,6-dimethylphenoxy)-7,8-dihydro-6H-pyrrolo[2,1-f]purin-2-yl)amino)bicyclo[1.1.1]pentane-1-carbonitrile], 24.6 nM.

Consider `Cc1cc(/C=C/C#N)cc(C)c1Oc1nc(NC23CC(C#N)(C2)C3)nc2c1C1(C)OCC(C)(C)CN1C2=O` (stereo not shown) [Compound 197, (E)-3-((4-(4-(2-cyanovinyl)-2,6-dimethylphenoxy)-4b,7,7-trimethyl-10-oxo-4b,7,8,10-tetrahydro-6H-pyrimido[5′,4′:3,4]pyrrolo[2,1-b][1,3]oxazin-2-yl)amino)bicyclo[1.1.1]pentane-1-carbonitrile], for which the EC50 came out at 97.3 nM. Regarding `Cc1cc(/C=C/C#N)cc(C)c1Oc1nc(NC23CC(C#N)(C2)C3)nc2c1C1(C)O[C@@H](CO)CN1C2=O` (stereo partly drawn) [Compound 264, 3-(((6R)-4-(4-((E)-2-cyanovinyl)-2,6-dimethylphenoxy)-6-(hydroxymethyl)-4b-methyl-9-oxo-4b,6,7,9-tetrahydrooxazolo[3′,2′:1,5]pyrrolo[3,4-d]pyrimidin-2-yl)amino)bicyclo[1.1.1]pentane-1-carbonitrile], the EC50 came out at 118 nM. Consider `Cc1cc(/C=C/C#N)cc(C)c1Oc1nc(NC23CC(C#N)(C2)C3)nc2c1C(O)(CF)NC2=O` (stereo not shown) [Compound 265, (E)-3-((4-(4-(2-cyanovinyl)-2,6-dimethylphenoxy)-5-(fluoromethyl)-5-hydroxy-7-oxo-6,7-dihydro-5H-pyrrolo[3,4-d]pyrimidin-2-yl)amino)bicyclo[1.1.1]pentane-1-carbonitrile], for which a half-maximal effect (EC50) was put at 86.4 nM. `Cc1cc(/C=C/C#N)cc(C)c1Oc1nc(NC23CC(C#N)(C2)C3)nc2c1/C(=C/F)NC2=O` [Compound 266, 3-(((Z)-4-(4-((E)-2-cyanovinyl)-2,6-dimethylphenoxy)-5-(fluoromethylene)-7-oxo-6,7-dihydro-5H-pyrrolo[3,4-d]pyrimidin-2-yl)amino)bicyclo[1.1.1]pentane-1-carbonitrile] registered a 50% effective concentration (EC50) of 61 nM. For `Cc1cc(/C=C/C#N)cc(C)c1Oc1nc(NC23CC(C#N)(C2)C3)nc2c1C(O)(CF)N(C1CC1)C2=O` (stereo not shown) [Compound 267, (E)-3-((4-(4-(2-cyanovinyl)-2,6-dimethylphenoxy)-6-cyclopropyl-5-(fluoromethyl)-5-hydroxy-7-oxo-6,7-dihydro-5H-pyrrolo[3,4-d]pyrimidin-2-yl)amino)bicyclo[1.1.1]pentane-1-carbonitrile], the response was half-maximal at 80.3 nM (EC50).

Consider `Cc1cc(/C=C/C#N)cc(C)c1Oc1nc(NC23CC(C#N)(C2)C3)nc2c1/C(=C/F)N(C1CC1)C2=O` [Compound 268, 3-(((Z)-4-(4-((E)-2-cyanovinyl)-2,6-dimethylphenoxy)-6-cyclopropyl-5-(fluoromethylene)-7-oxo-6,7-dihydro-5H-pyrrolo[3,4-d]pyrimidin-2-yl)amino)bicyclo[1.1.1]pentane-1-carbonitrile], for which the EC50 amounted to 173 nM.

The compound `C=C1c2c(Oc3c(C)cc(/C=C/C#N)cc3C)nc(NC34CC(C#N)(C3)C4)nc2C(=O)N1[C@H]1CC[C@@H](O)C1` [Compound 269, 3-((4-(4-((E)-2-cyanovinyl)-2,6-dimethylphenoxy)-6-((1S,3R)-3-hydroxycyclopentyl)-5-methylene-7-oxo-6,7-dihydro-5H-pyrrolo[3,4-d]pyrimidin-2-yl)amino)bicyclo[1.1.1]pentane-1-carbonitrile] had an EC50 of 57.3 nM. `C=C1c2c(Oc3c(C)cc(/C=C/C#N)cc3C)nc(NC34CC(C#N)(C3)C4)nc2C(=O)N1CCCCO` [Compound 270, (E)-3-((4-(4-(2-cyanovinyl)-2,6-dimethylphenoxy)-6-(4-hydroxybutyl)-5-methylene-7-oxo-6,7-dihydro-5H-pyrrolo[3,4-d]pyrimidin-2-yl)amino)bicyclo[1.1.1]pentane-1-carbonitrile] displayed an EC50 of 19 nM. In turn, `Cc1cc(/C=C/C#N)cc(C)c1Oc1nc(NC23CC(C#N)(C2)C3)nc2c1C1(C)OCC[C@H](C)N1C2=O` (stereo partly drawn) [Compound 271, 3-(((8S)-4-(4-((E)-2-cyanovinyl)-2,6-dimethylphenoxy)-4b,8-dimethyl-10-oxo-4b,7,8,10-tetrahydro-6H-pyrimido[5′,4′:3,4]pyrrolo[2,1-b][1,3]oxazin-2-yl)amino)bicyclo[11.1.1]pentane-1-carbonitrile] returned an EC50 of 52 nM. On to `Cc1cc(/C=C/C#N)cc(C)c1Oc1nc(NC23CC(C#N)(C2)C3)nc2c1C1(C)OCC[C@@H](C)N1C2=O` (stereo partly drawn) [Compound 272, 3-(((8R)-4-(4-((E)-2-cyanovinyl)-2,6-dimethylphenoxy)-4b,8-dimethyl-10-oxo-4b,7,8,10-tetrahydro-6H-pyrimido[5′,4′:3,4]pyrrolo[2,1-b][1,3]oxazin-2-yl)amino)bicyclo[1.1.1]pentane-1-carbonitrile], for which the response was half-maximal at 68.3 nM (EC50). As for `Cc1cc(/C=C/C#N)cc(C)c1Oc1nc(NC23CC(C#N)(C2)C3)nc2c1C1(C)OCCN1C2=O` (stereo not shown) [Compound 273, (E)-3-((4-(4-(2-cyanovinyl)-2,6-dimethylphenoxy)-4b-methyl-9-oxo-4b,6,7,9-tetrahydrooxazolo[3′,2′:1,5]pyrrolo[3,4-d]pyrimidin-2-yl)amino)bicyclo[1.1.1]pentane-1-carbonitrile], the EC50 was 16 nM. With `Cc1cc(/C=C/C#N)cc(C)c1Oc1nc(NC23CC(C#N)(C2)C3)nc2c1nc1n2CC2(CC2)CO1` [Compound 274, (E)-3-((4′-(4-(2-cyanovinyl)-2,6-dimethylphenoxy)-7′H,9′H-spiro[cyclopropane-1,8′-[1,3]oxazino[3,2-e]purin]-2′-yl)amino)bicyclo[1.1.1]pentane-1-carbonitrile], a half-maximal effect (EC50) was put at 111 nM. Compound `Cc1cc(/C=C/C#N)cc(C)c1C(=O)c1nc(NC23CC(C#N)(C2)C3)nc2nn(C)cc12` [Compound 275, (E)-3-((4-(4-(2-cyanovinyl)-2,6-dimethylbenzoyl)-2-methyl-2H-pyrazolo[3,4-d]pyrimidin-6-yl)amino)bicyclo[1.1.1]pentane-1-carbonitrile] returned an EC50 of 113 nM.

Compound `Cc1cc(/C=C/C#N)cc(C)c1C(O)c1nc(NC23CC(C#N)(C2)C3)nc2nn(C)cc12` (stereo not shown) [Compound 276, (E)-3-((4-((4-(2-cyanovinyl)-2,6-dimethylphenyl)(hydroxy)methyl)-2-methyl-2H-pyrazolo[3,4-d]pyrimidin-6-yl)amino)bicyclo[1.1.1]pentane-1-carbonitrile] showed an EC50 of 194 nM.

`Cc1cc(/C=C/C#N)cc(C)c1Cc1nc(NC23CC(C#N)(C2)C3)nc2nn(C)cc12` [Compound 277, (E)-3-((4-(4-(2-cyanovinyl)-2,6-dimethylbenzyl)-2-methyl-2H-pyrazolo[3,4-d]pyrimidin-6-yl)amino)bicyclo[1.1.1]pentane-1-carbonitrile] yielded an EC50 of 49.9 nM. On to `Cc1cc(/C=C/C#N)cc(C)c1Oc1nc(NC23CC(C#N)(C2)C3)nc2c1[C@@H]1OCCCN1C2=O` [Compound 279, (S,E)-3-((4-(4-(2-cyanovinyl)-2,6-dimethylphenoxy)-10-oxo-4b,7,8,10-tetrahydro-6H-pyrimido[5′,4′:3,4]pyrrolo[2,1-b][1,3]oxazin-2-yl)amino)bicyclo[1.1.1]pentane-1-carbonitrile], for which the EC50 amounted to 57.2 nM.

What is called EC50 is the concentration giving half of the maximal effect.
